Results: PubChem BioAssay AID330 (DTP/NCI, 2004)
Several values for one entry are separate records, joined by “and”; a condition that tells them apart may be missing. Identical values can stand only once. Toxic doses and inconclusive results are not listed. The calls were made as follows: active = survival T/C of 150% or more; inactive = T/C below 125% in these data.

Tested on: P388 leukemia ip, CD2F1 mice, survival T/C
Assay: NCI In Vivo Anticancer Drug Screen. Data for tumor model P388 Leukemia (intraperitoneal) in CD2F1 (CDF1) mice
Conditions: endpoint: median survival time, higher = longer survival
Outline: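 Mice carrying the transplanted tumor received test compound or vehicle. Survival was recorded in each group, and the value is the treated-group measurement divided by that of the vehicle-treated control group.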

[1] = dose: 60.0 mg/kg/injection, schedule: Q01DX005 (ip), vehicle: saline with Tween-80
[2] = dose: 120.0 mg/kg/injection, schedule: Q01DX005 (ip), vehicle: saline with Tween-80
[3] = dose: 240.0 mg/kg/injection, schedule: Q01DX005 (ip), vehicle: saline with Tween-80
[4] = dose: 100.0 mg/kg/injection, schedule: Q04DX002 (ip), vehicle: saline with Tween-80
[5] = dose: 25.0 mg/kg/injection, schedule: Q01DX005 (ip), vehicle: Klucel (hydroxypropylcellulose) (HPC)
[6] = dose: 50.0 mg/kg/injection, schedule: Q01DX005 (ip), vehicle: Klucel (hydroxypropylcellulose) (HPC)
[7] = dose: 100.0 mg/kg/injection, schedule: Q04DX003 (ip), vehicle: saline with Tween-80
[8] = dose: 200.0 mg/kg/injection, schedule: Q04DX003 (ip), vehicle: saline with Tween-80
[9] = dose: 50.0 mg/kg/injection, schedule: Q01DX009 (ip), vehicle: saline with Tween-80
[10] = dose: 100.0 mg/kg/injection, schedule: Q01DX009 (ip), vehicle: saline with Tween-80
[11] = dose: 200.0 mg/kg/injection, schedule: Q01DX009 (ip), vehicle: saline with Tween-80
[12] = dose: 50.0 mg/kg/injection, schedule: Q01DX009 (ip), vehicle: saline
[13] = dose: 100.0 mg/kg/injection, schedule: Q01DX009 (ip), vehicle: saline
[14] = dose: 200.0 mg/kg/injection, schedule: Q01DX009 (ip), vehicle: saline
[15] = dose: 25.0 mg/kg/injection, schedule: Q01DX009 (ip), vehicle: saline with Tween-80

Measured: T/C

NC(=O)c1sc(N2CCCC2)nc1N
inactive: [1] 112 % of control | [2] 105 % of control | [3] 118 % of control

O=[N+]([O-])c1ccc(-c2nc3ccc(F)cc3[nH]2)o1
inactive: [1] 101 % of control | [2] 97 % of control | [3] 104 % of control

CN(C)C12CCCCCCC1S(=O)(=O)C2 (stereo not given)
inactive: dose: 25.0 mg/kg/injection, schedule: Q04DX002 (ip), vehicle: saline with Tween-80 98 % of control | dose: 50.0 mg/kg/injection, schedule: Q04DX002 (ip), vehicle: saline with Tween-80 98 % of control | [4] 102 % of control and 96 % of control

CCCOC(=O)NC(C)C(=O)NC(CCC(=O)NC(CCCC(N)C(=O)O)C(=O)NC(C)C(=O)O)C(=O)O (stereo not given)
inactive: dose: 1.56 mg/kg/injection, schedule: Q01DX005 (ip), vehicle: Klucel (hydroxypropylcellulose) (HPC) 100 % of control | dose: 3.12 mg/kg/injection, schedule: Q01DX005 (ip), vehicle: Klucel (hydroxypropylcellulose) (HPC) 103 % of control | dose: 6.25 mg/kg/injection, schedule: Q01DX005 (ip), vehicle: Klucel (hydroxypropylcellulose) (HPC) 100 % of control | dose: 12.5 mg/kg/injection, schedule: Q01DX005 (ip), vehicle: Klucel (hydroxypropylcellulose) (HPC) 95 % of control and 96 % of control | [5] 86 % of control | [6] 100 % of control

CCCCCCCCCCCCCCCCS(=O)(=O)c1ccc(S(=O)(=O)F)cc1NC(C)=O
inactive: dose: 50.0 mg/kg/injection, schedule: Q04DX003 (ip), vehicle: saline sonified 104 % of control | dose: 100.0 mg/kg/injection, schedule: Q04DX003 (ip), vehicle: saline sonified 95 % of control | dose: 200.0 mg/kg/injection, schedule: Q04DX003 (ip), vehicle: saline sonified 100 % of control

C1CC2CCC(N3CCCC3)C(C1)C21OCCO1 (stereo not given)
inactive: [1] 93 % of control | [2] 92 % of control

OCc1ccccc1Cn1ccnc1
inactive: [1] 96 % of control | [2] 93 % of control | [3] 96 % of control

CC(C)(C)c1cc(C(C)(C)C)c(P(C(O[Si](C)(C)C)=C(c2ccccc2)c2ccccc2)C(O[Si](C)(C)C)=C(c2ccccc2)c2ccccc2)c(C(C)(C)C)c1
inactive: [1] 94 % of control | [2] 99 % of control | [3] 93 % of control

O=C(CCN1C(=O)NC(c2ccccc2)(c2ccccc2)C1=O)NCCN1CCOCC1
inactive: [1] 96 % of control | [2] 100 % of control | [3] 102 % of control

C=C1C(=O)OC2C3OC(C)(CCC(O)C3COC(C)=O)CC(OC(=O)/C(=C/C)COC(C)=O)C12 (stereo not given)
inactive: dose: 0.75 mg/kg/injection, schedule: Q01DX009 (ip), vehicle: saline 116 % of control and 118 % of control | dose: 0.78 mg/kg/injection, schedule: Q01DX009 (ip), vehicle: Klucel (hydroxypropylcellulose) (HPC) 99 % of control | dose: 1.5 mg/kg/injection, schedule: Q01DX009 (ip), vehicle: saline 100 % of control and 111 % of control | dose: 1.56 mg/kg/injection, schedule: Q01DX009 (ip), vehicle: Klucel (hydroxypropylcellulose) (HPC) 113 % of control | dose: 3.0 mg/kg/injection, schedule: Q01DX009 (ip), vehicle: saline 101 % of control and 106 % of control | dose: 3.12 mg/kg/injection, schedule: Q01DX009 (ip), vehicle: Klucel (hydroxypropylcellulose) (HPC) 105 % of control | dose: 6.25 mg/kg/injection, schedule: Q01DX009 (ip), vehicle: Klucel (hydroxypropylcellulose) (HPC) 97 % of control

O=[N+]([O-])c1cc[n+]([O-])c(Cl)c1
inactive: dose: 25.0 mg/kg/injection, schedule: Q01DX009 (ip), vehicle: Klucel (hydroxypropylcellulose) (HPC) 91 % of control | dose: 50.0 mg/kg/injection, schedule: Q01DX009 (ip), vehicle: Klucel (hydroxypropylcellulose) (HPC) 96 % of control | dose: 100.0 mg/kg/injection, schedule: Q01DX009 (ip), vehicle: Klucel (hydroxypropylcellulose) (HPC) 94 % of control | dose: 200.0 mg/kg/injection, schedule: Q01DX009 (ip), vehicle: Klucel (hydroxypropylcellulose) (HPC) 101 % of control

Clc1ccc2c(c1)nc(-c1ccccn1)n2CCc1ccncc1
inactive: [5] 100 % of control | [6] 95 % of control | dose: 100.0 mg/kg/injection, schedule: Q01DX005 (ip), vehicle: Klucel (hydroxypropylcellulose) (HPC) 99 % of control | dose: 200.0 mg/kg/injection, schedule: Q01DX005 (ip), vehicle: Klucel (hydroxypropylcellulose) (HPC) 99 % of control

Clc1cccc2nncn12
inactive: dose: 50.0 mg/kg/injection, schedule: Q01DX001 (ip), vehicle: saline 98 % of control | dose: 100.0 mg/kg/injection, schedule: Q01DX001 (ip), vehicle: saline 102 % of control | dose: 200.0 mg/kg/injection, schedule: Q01DX001 (ip), vehicle: saline 100 % of control

COc1ccc(Cc2ccc(OC)c(OC)c2)cc1OC
inactive: dose: 25.0 mg/kg/injection, schedule: Q04DX003 (ip), vehicle: saline with Tween-80 99 % of control | dose: 50.0 mg/kg/injection, schedule: Q04DX003 (ip), vehicle: saline with Tween-80 99 % of control | [7] 113 % of control | [8] 109 % of control | dose: 400.0 mg/kg/injection, schedule: Q04DX003 (ip), vehicle: saline with Tween-80 120 % of control

Cc1cc[n+](C2=C(Nc3ccc(Cl)cc3Cl)C(=O)c3ccccc3C2=O)cc1
inactive: [1] 99 % of control | [2] 106 % of control | [3] 108 % of control

COC1(Cl)CC1C#N (stereo not given)
inactive: [9] 117 % of control | [10] 96 % of control | [11] 105 % of control

CN1C(=O)C2N(C(=O)C1(C)S)c1ccccc1C2(C)C (stereo not given)
inactive: [12] 102 % of control | [13] 93 % of control | [14] 101 % of control

CC(C)CNS(=O)(=O)c1ncnc2nc[nH]c12
inactive: [7] 100 % of control | [8] 87 % of control

NC(N)=NC(=O)COc1ccc(Cl)cc1Cl
inactive: [1] 97 % of control | [2] 103 % of control | [3] 114 % of control

O=C1CCC(Cc2ccccc2)CN1 (stereo not given)
inactive: [1] 97 % of control | [2] 101 % of control | [3] 97 % of control

CCc1ccc(NC(=O)NC(=O)c2c(F)cccc2F)cc1
inactive: [15] 114 % of control | dose: 25.0 mg/kg/injection, schedule: Q01DX009 (ip), vehicle: saline 106 % of control | [9] 106 % of control and 116 % of control | [12] 103 % of control and 115 % of control | [10] 100 % of control and 120 % of control | [13] 101 % of control and 98 % of control | [11] 120 % of control and 97 % of control | [14] 100 % of control and 103 % of control

Cn1c2ccccc2c2nnc(N/N=C/c3ccncc3)nc21
inactive: [4] 88 % of control | dose: 200.0 mg/kg/injection, schedule: Q04DX002 (ip), vehicle: saline with Tween-80 88 % of control | dose: 400.0 mg/kg/injection, schedule: Q04DX002 (ip), vehicle: saline with Tween-80 99 % of control and 100 % of control

CCOc1c(N=Nc2ccc(O)cc2)c(C)nn1C(=S)SC
inactive: dose: 60.0 mg/kg/injection, schedule: Q01DX005 (ip), vehicle: Klucel + Tween-80 107 % of control | dose: 120.0 mg/kg/injection, schedule: Q01DX005 (ip), vehicle: Klucel + Tween-80 104 % of control | dose: 240.0 mg/kg/injection, schedule: Q01DX005 (ip), vehicle: Klucel + Tween-80 100 % of control

FC(F)(F)SN1CN(SC(F)(F)F)CN(SC(F)(F)F)CN(SC(F)(F)F)C1
inactive: dose: 60.0 mg/kg/injection, schedule: Q01DX005 (ip), vehicle: saline 103 % of control and 96 % of control | dose: 120.0 mg/kg/injection, schedule: Q01DX005 (ip), vehicle: saline 96 % of control | dose: 240.0 mg/kg/injection, schedule: Q01DX005 (ip), vehicle: saline 100 % of control

COc1cc2ccc(/C(C)=N/OC(C)=O)cc2cc1OC
inactive: [10] 95 % of control | [11] 90 % of control | dose: 400.0 mg/kg/injection, schedule: Q01DX009 (ip), vehicle: saline with Tween-80 90 % of control

NP(=O)(Oc1ccccc1)Oc1ccccc1
inactive: dose: 6.23 mg/kg/injection, schedule: Q01DX009 (ip), vehicle: saline with Tween-80 95 % of control | dose: 12.5 mg/kg/injection, schedule: Q01DX009 (ip), vehicle: saline with Tween-80 100 % of control | [15] 95 % of control

CC(C)C1N(N2C(=O)CS(=O)(=O)C2C(C)C)C(=O)CS1(=O)=O (stereo not given)
inactive: dose: 50.0 mg/kg/injection, schedule: Q01DX005 (ip), vehicle: saline with Tween-80 98 % of control | dose: 100.0 mg/kg/injection, schedule: Q01DX005 (ip), vehicle: saline with Tween-80 101 % of control | dose: 200.0 mg/kg/injection, schedule: Q01DX005 (ip), vehicle: saline with Tween-80 102 % of control
